Source: patent US12018093B2, “Hemiasterlin derivatives and antibody-drug conjugates including same” (priority 2017, dated 2024)
Where “and” joins values, the source holds several entries; their conditions need not be identical. Identical values can stand only once. Entries after “also recorded” stand apart in the source; their conditions may differ. Like-named read-outs stand apart in the source and are kept apart here.

Experiments:
in vitro = settings: PAMPA, pH 7.4
Protocol: By the parallel artificial membrane permeability assay (PAMPA), the membrane permeability of compounds of Examples was examined as follows: To the donor plate, System solution (pION inc.) and GIT Lipid-0 (pION inc.) were added in an amount of 200 μL and 4 μL for each well, respectively. To the acceptor plate, Acceptor Sink Buffer (pION inc.) was added in an amount of 200 μL. Both plates were superposed and incubated at 37° C. for 4 hours, and then, UVs in the solutions on the side of acceptor and on the side of donor were measured with an UV plate reader (190 to 500 nm). Compounds with poor UV absorption were measured by LC-MS. The permeability coefficient Pe (10^−6 cm/sec) of the drug was calculated by the following formula.

[1] = Pharmacokinetic evaluation test using mice; assay type: in vivo
Protocol: A pharmacokinetic evaluation test was performed by single intravenous administration of Example 4 at a dose of 1.0 mg/kg to mice. A calibration curve was made from measurements of Example 4 with known concentration, and by interpolating measurements of each specimen to this, the amount of the compound contained in unit volume of each plasma was calculated using LC-MS. Pharmacokinetics of compound 14 and hemiasterlin were similarly evaluated.
(n.d. in the tables means less than the detection limit value (0.5 ng/mL).)

SK-BR-3 cells = test: Cellular toxicity test (2), CellTiter-Glo, SK-BR-3; assay type: cell-based; settings: Homo sapiens, 72 h, cultured 3 days, cell viability
Protocol: (§1) The IC50 value was calculated by the following formula: IC50(nM)=antilog(LOG10(a/b)×(e−d)/(c−d)+LOG10b) • a: concentration a of test substance • b: concentration b of test substance • c: cell viability upon adding test substance with concentration a • d: cell viability upon adding test substance with concentration b • e: intermediate value between maximum and minimum among cell viabilities upon • adding test substances with different concentrations (a and b are concentrations crossing the cell viability e, and a>b is indicated).
(§2) The cell viability at each concentration was calculated by the following formula: Cell Viability (%)=a′/b′×100 • a′: mean value of luminescence amount of wells to which test substance was added (n=6) • b′: mean value of luminescence amount of wells to which test substance was not added (n=6) • (n represents the number of evaluations performed per test substance concentration).
SK-BR-3 cells (ATCC), which are a human breast cancer cell line, were cultured in McCoy's 5A (GIBCO) containing 10% fetal bovine serum (MP Biomedicals) (hereinafter, referred to as the “culture medium” in this test). SK-BR-3 cells were prepared to be 2×10^6 cells/mL in the culture medium, added to a 96 well microplate for cell culturing in an amount of 50 μL for each well, and cultured at 37 degree under 5% CO2 overnight, and then, compounds of Examples or hemiasterlin 4 times diluted with the culture medium in 8 stages were added to the microplate in an amount of 50 μL for each well. To wells to which the test substance was not added, the culture medium was added in an amount of 50 μL for each well. These were cultured at 37 degree under 5% CO2 for 3 days. After culturing, the microplate was taken out from the incubator, and was left at rest at room temperature for 10 minutes. 50 μL of CellTiter-Glo Luminescent Cell Viability Assay (Promega) was added, and the resultant mixture was stirred. This mixture was incubated at a dark place for 20 minutes. Using a microplate luminometer, luminescence at each well was measured, thereby calculating the cell viability for each concentration of the test substance. The IC50 value was calculated in accordance with the method described in Test Example 3.

SU-DHL-1 cells = test: Cellular toxicity test (1), CellTiter-Glo, SU-DHL-1; assay type: cell-based; settings: Homo sapiens, 96 h, cultured 4 days, cell viability
Protocol: (§3) SU-DHL-1 cells (American Type Culture Collection, hereinafter, ATCC) and Karpas-299 cells (European Collection of Authenticated Cell Cultures, hereinafter, ECACC), which are human lymphoma cell lines, were cultured in RPMI 1640 (GIBCO) containing 10% fetal bovine serum (MP Biomedicals) (hereinafter, referred to as the “culture medium” in this test). SU-DHL-1 cells and Karpas-299 cells were prepared to be 2×10^6 cells/mL in the culture medium, and were added to a 96 well microplate for cell culturing in an amount of 50 μL for each well. Compounds of Examples or hemiasterlin 4 times diluted with the culture medium in 8 stages were added to the microplate in an amount of 50 μL for each well. To wells to which the test substance was not added, the culture medium was added in an amount of 50 μL for each well. These were cultured at 37 degree under 5% CO2 for 4 days. After culturing, the microplate was taken out from the incubator, and was left at rest at room temperature for 10 minutes. To each well, 50 μL of CellTiter-Glo Luminescent Cell Viability Assay (Promega) was added, and the resultant mixture was stirred. This mixture was incubated at a dark place for 20 minutes. Using a microplate luminometer, luminescence at each well was measured, thereby calculating the cell viability for each concentration of the test substance. From the cell viability, the IC50 value of the test substance was determined.
as §1, §2

Karpas-299 cells = test: Cellular toxicity test (1), CellTiter-Glo, Karpas-299; assay type: cell-based; settings: Homo sapiens, 96 h, cultured 4 days, cell viability
Protocol: as §3, §1, §2

porcine tubulin = porcine tubulin (Sus scrofa, UniProt P02550+P02554); test: Activity for inhibiting microtubule polymerization using porcine tubulins (1); assay type: biochemical; set-up: purchased Cytoskeleton Inc. BK006P; settings: compound 0.91 μM; absorbance at 340 nm, 37° C.; FIG. 1 and FIG. 2
porcine tubulin, sequence (P02554 whole entry): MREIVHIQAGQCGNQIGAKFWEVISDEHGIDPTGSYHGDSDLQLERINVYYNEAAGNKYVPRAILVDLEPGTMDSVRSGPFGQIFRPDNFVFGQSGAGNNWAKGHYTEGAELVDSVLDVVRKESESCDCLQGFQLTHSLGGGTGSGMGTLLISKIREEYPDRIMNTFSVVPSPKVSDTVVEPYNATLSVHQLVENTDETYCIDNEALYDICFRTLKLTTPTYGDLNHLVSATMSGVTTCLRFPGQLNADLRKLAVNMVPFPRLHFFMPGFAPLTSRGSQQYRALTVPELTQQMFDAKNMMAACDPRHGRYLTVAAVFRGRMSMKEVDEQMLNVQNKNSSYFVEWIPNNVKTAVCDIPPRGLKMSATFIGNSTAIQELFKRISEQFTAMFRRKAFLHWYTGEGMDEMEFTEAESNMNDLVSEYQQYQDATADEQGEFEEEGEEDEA
porcine tubulin, sequence (P02550 whole entry): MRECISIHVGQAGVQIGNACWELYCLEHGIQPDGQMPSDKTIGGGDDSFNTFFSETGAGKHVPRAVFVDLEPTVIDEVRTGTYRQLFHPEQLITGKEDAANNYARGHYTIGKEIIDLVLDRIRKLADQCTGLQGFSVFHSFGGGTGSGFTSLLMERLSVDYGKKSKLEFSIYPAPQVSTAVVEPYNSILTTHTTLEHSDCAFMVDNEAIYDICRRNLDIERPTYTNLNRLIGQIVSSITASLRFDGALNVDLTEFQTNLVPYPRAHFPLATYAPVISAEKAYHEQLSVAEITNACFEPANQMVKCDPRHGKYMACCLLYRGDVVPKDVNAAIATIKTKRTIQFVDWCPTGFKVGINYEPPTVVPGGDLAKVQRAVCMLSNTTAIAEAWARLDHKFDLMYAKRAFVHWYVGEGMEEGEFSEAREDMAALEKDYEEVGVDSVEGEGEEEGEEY

[2] = single intravenous 1.0 mg/kg, 6 hr
[3] = single intravenous 1.0 mg/kg, 24 hr

Structure (SMILES): CN[C@H](C(=O)N[C@H](C(=O)N(C)[C@H](/C=C(\C)C(=O)N[C@H](CCC(=O)O)C(=O)O)C(C)C)C(C)(C)C)C(C)(C)c1cn(C)c2ccccc12 [Example 4]
- Papp (in vitro): < 0.1 ×10⁻⁶ cm/s
- half-life ([1]; mouse, plasma, 1 mg/kg, single intravenous administration): < 30 min
- concentration at 0.5 hr ([1]; mouse, plasma, iv, 1 mg/kg, single intravenous 1.0 mg/kg, 0.5 hr, read-out: Blood concentration, mean value): 13.7 ng/mL
- concentration at 2 hr ([1]; mouse, plasma, iv, 1 mg/kg, single intravenous 1.0 mg/kg, 2 hr, read-out: Blood concentration, individual mice 1-3): 0.7 ng/mL
- concentration at 2 hr ([1]; mouse, plasma, iv, 1 mg/kg, single intravenous 1.0 mg/kg, 2 hr, read-out: Blood concentration, mean value): 0.8 ng/mL
- Blood concentration, individual mice 1-3 ([1]; single intravenous 1.0 mg/kg, 0.5 hr, 1 mg/kg): 10.3 ng/mL and 10.2 ng/mL and 20.6 ng/mL
- Blood concentration, individual mice 1-3 ([1]; single intravenous 1.0 mg/kg, 2 hr, 1 mg/kg): 1.0 ng/mL and 0.7 ng/mL
- Blood concentration, individual mice 1-3 [1, 2]: n.d. (less than the detection limit value (0.5 ng/mL))
- Blood concentration, mean value [1, 2]: n.d. (less than the detection limit value (0.5 ng/mL))
- Blood concentration, individual mice 1-3 [1, 3]: n.d. (less than the detection limit value (0.5 ng/mL))
- Blood concentration, mean value [1, 3]: n.d. (less than the detection limit value (0.5 ng/mL))
- Blood concentration of Example 4 detected as metabolite of Example 14 ([1]; single intravenous administration of Example 14, 6 hr, animal 1): n.d. (less than the detection limit value (0.5 ng/mL))
- Blood concentration of Example 4 detected as metabolite of Example 14 ([1]; single intravenous administration of Example 14, 6 hr, animal 2): n.d. (less than the detection limit value (0.5 ng/mL))
- Blood concentration of Example 4 detected as metabolite of Example 14 ([1]; single intravenous administration of Example 14, 6 hr, animal 3): n.d. (less than the detection limit value (0.5 ng/mL))
- Blood concentration of Example 4 detected as metabolite of Example 14, mean ([1]; single intravenous administration of Example 14, 6 hr): n.d. (less than the detection limit value (0.5 ng/mL))
- Blood concentration of Example 4 detected as metabolite of Example 14 ([1]; single intravenous administration of Example 14, 24 hr, animal 1): n.d. (less than the detection limit value (0.5 ng/mL))
- Blood concentration of Example 4 detected as metabolite of Example 14 ([1]; single intravenous administration of Example 14, 24 hr, animal 2): n.d. (less than the detection limit value (0.5 ng/mL))
- Blood concentration of Example 4 detected as metabolite of Example 14 ([1]; single intravenous administration of Example 14, 24 hr, animal 3): n.d. (less than the detection limit value (0.5 ng/mL))
- Blood concentration of Example 4 detected as metabolite of Example 14, mean ([1]; single intravenous administration of Example 14, 24 hr): n.d. (less than the detection limit value (0.5 ng/mL))
- IC50 (SK-BR-3 cells): 193 nM
- IC50 (SU-DHL-1 cells): 250 nM
- IC50 (Karpas-299 cells): 291 nM
- activity for inhibiting microtubule polymerization (porcine tubulin): exhibited activities for inhibiting microtubule polymerization; also recorded: exhibited a stronger polymerization inhibitory activity
